Assay results published in patent US12473294B2, “Selective modulators of mutant LRRK2 proteolysis and associated methods of use” (Arvinas Operations, Inc., priority 2020, dated 2025).

How the values were obtained:
G2019S LRRK2 = molecular target: T1, G2019S LRRK2 (Homo sapiens, UniProt Q5S007, G2019S); assay: LRRK2 degradation HiBit assay, G2019S LRRK2 tagged with a HiBit tag expressed in HEK293 cells; format: cell-based; conditions: 24 hours compound incubation; for Dmax: HEK293, HEK293 cells
T1 construct: expressed in transfected cells; host or cells: HEK293 (ATCC CRL-1573)
Procedure: (§1) The assay measures the degradation of wildtype and G2019S LRRK2 tagged with a HiBit tag on the C-terminus of the protein that was expressed from a mammalian expression vector, driven by the ubiquitin promoter in HEK293 cells. Each compound dose-response was repeated on three separate days, on three separate plates each day.
(§2) Plasmid Preparation. Transfection mixes were assembled as follows and incubated for 30 minutes at room temperature. In a 15 mL tube, 5.25 mL Opti-MEM (no additions) was mixed with 17 μL Firefly Luciferase plasmid at 1 μg/μL and 158 μL WT plasmid DNA at 1 μg/μL (175 μg total DNA) were mixed by flicking. In a new 15 mL tube, 5.25 mL OptiMEM was mixed with 17 μL Firefly Luciferase plasmid at 1 μg/μL and 158 μL G2019S plasmid DNA at 1 μg/μL (175 μg total DNA) were mixed by flicking. X-tremeGene HP was mixed thoroughly using a vortex. Next, 175 μL was added to each tube and flicked to mix. Both tubes were left to incubate for 30 minutes at room temperature.
While the transfection mixes were incubating, HEK293 cells acquired from ATCC (ATCC CRL-1573) were harvested with trypsin. Once cells are detached, the cells were resuspended in 12 mL OptiMEM+5% FBS and transferred to a 50 mL tube. The cells were mixed well and counted. Using OptiMEM+5% FBS, the cells were diluted in two 250 mL conical tubes at 0.71×10^6 cells/mL in 70 mL. One tube was labeled “WT” and the other “G2019S”. The WT and G2019S transfection mixes were added dropwise to the corresponding 250 mL tubes. The tubes were mixed first by pipetting then by swirling. The tubes were incubated at room temperature for at least 5 minutes.
(§3) Each tube was swirled before dispensing and after every three plates. Seventy microliters of cells were dispensed with WT or G2019S DNA to seven plates each. Three plates of each were tested with compound plate one (preparation described below) and three plates of each were tested with compound plate two (preparation described below). The first plate from each set served as a “prime” plate and was not used to test compounds. Each plate was incubated in the hood for 10 minutes before placing in the 37° C. incubator for 24 hours.
(§4) Preparation of Compound and Assay Plates. Two compound plates were made using 96 well polypropylene plates. Compounds were made up at 10 mM and were diluted to 1 mM in 30 μL. Each dose response curve included a well of DMSO, as a negative control and for normalization, and a well of 0.5 μM of Exemplary Compound 4 as a positive control. In addition to seven test compounds, each plate also included a dose response of Exemplary Compound 4. The compound plates were spun down along at 1200 rpm for 2 minutes.
(§5) The two compound plates were then mixed and 2 μL was diluted in intermediate plates having 248 μL of Opti-Mem in each well. Next, 10 μL diluted compounds from the intermediate plates were added to each test plate (three WT and three G2019S plates per compound plate for a total of 12 assay plates). The plates were incubated for 24 hours at 37° C.
(§6) All assay plates and all Nano-Glo Dual-Luciferase Reporter Assay System components (except for the DLR substrate) were equilibrated to room temperature. Next, the luciferase buffer was mixed with the lyophilized amber bottle until fully dissolved, and 75 μL of the luciferase mixture was added to each well of each assay plate. The assay plates were incubated for 10 minutes at room temperature with shaking for at least 5 minutes, and then read on a plate reader.
(§7) Developing Plates and Analyzing Data. One milliliter of DLR substrate and 1 mL LgBiT Protein were added to the Stop and Glo buffer, and 75 μL of the mixture was added to each well of each plate. Optically clear seals were added to each plate and each plate was incubated for 20 minutes with shaking for at least 10 minutes, and then read on a plate reader. […]

wildtype LRRK2 = molecular target: T2, wildtype LRRK2 (Homo sapiens, UniProt Q5S007); assay: LRRK2 degradation HiBit assay, wildtype LRRK2 tagged with a HiBit tag in HEK293 cells; format: cell-based; conditions: 24 hours compound incubation; for Dmax: read-out: ** WT Dmax (%); for DC50: read-out: *WT DC50
T2 construct: endogenous in cells; host or cells: HEK293 with HiBit knocked in at the 3' end of the endogenous LRRK2 gene, stably expressing firefly luciferase
Procedure: as §1, with “repeated on two separate days,” for “repeated on three separate days,”
as §2
While the transfection mixes were incubating, HEK293 cells (acquired from ATCC; ATCC CRL-1573) were harvested with trypsin. Once cells are detached, the cells were resuspended in 12 mL OptiMEM+5% FBS and transferred to a 50 mL tube. The cells were mixed well and counted. Using OptiMEM+5% FBS, the cells were diluted in two 250 mL conical tubes at 0.71×10^6 cells/mL in 70 mL. One tube was labeled “WT” and the other “G2019S”. The WT and G2019S transfection mixes were added dropwise to the corresponding 250 mL tubes. The tubes were mixed first by pipetting then by swirling. The tubes were incubated at room temperature for at least 5 minutes.
as §3, §4, §5, §6, §7

T1 sequence (Q5S007 whole entry G2019S): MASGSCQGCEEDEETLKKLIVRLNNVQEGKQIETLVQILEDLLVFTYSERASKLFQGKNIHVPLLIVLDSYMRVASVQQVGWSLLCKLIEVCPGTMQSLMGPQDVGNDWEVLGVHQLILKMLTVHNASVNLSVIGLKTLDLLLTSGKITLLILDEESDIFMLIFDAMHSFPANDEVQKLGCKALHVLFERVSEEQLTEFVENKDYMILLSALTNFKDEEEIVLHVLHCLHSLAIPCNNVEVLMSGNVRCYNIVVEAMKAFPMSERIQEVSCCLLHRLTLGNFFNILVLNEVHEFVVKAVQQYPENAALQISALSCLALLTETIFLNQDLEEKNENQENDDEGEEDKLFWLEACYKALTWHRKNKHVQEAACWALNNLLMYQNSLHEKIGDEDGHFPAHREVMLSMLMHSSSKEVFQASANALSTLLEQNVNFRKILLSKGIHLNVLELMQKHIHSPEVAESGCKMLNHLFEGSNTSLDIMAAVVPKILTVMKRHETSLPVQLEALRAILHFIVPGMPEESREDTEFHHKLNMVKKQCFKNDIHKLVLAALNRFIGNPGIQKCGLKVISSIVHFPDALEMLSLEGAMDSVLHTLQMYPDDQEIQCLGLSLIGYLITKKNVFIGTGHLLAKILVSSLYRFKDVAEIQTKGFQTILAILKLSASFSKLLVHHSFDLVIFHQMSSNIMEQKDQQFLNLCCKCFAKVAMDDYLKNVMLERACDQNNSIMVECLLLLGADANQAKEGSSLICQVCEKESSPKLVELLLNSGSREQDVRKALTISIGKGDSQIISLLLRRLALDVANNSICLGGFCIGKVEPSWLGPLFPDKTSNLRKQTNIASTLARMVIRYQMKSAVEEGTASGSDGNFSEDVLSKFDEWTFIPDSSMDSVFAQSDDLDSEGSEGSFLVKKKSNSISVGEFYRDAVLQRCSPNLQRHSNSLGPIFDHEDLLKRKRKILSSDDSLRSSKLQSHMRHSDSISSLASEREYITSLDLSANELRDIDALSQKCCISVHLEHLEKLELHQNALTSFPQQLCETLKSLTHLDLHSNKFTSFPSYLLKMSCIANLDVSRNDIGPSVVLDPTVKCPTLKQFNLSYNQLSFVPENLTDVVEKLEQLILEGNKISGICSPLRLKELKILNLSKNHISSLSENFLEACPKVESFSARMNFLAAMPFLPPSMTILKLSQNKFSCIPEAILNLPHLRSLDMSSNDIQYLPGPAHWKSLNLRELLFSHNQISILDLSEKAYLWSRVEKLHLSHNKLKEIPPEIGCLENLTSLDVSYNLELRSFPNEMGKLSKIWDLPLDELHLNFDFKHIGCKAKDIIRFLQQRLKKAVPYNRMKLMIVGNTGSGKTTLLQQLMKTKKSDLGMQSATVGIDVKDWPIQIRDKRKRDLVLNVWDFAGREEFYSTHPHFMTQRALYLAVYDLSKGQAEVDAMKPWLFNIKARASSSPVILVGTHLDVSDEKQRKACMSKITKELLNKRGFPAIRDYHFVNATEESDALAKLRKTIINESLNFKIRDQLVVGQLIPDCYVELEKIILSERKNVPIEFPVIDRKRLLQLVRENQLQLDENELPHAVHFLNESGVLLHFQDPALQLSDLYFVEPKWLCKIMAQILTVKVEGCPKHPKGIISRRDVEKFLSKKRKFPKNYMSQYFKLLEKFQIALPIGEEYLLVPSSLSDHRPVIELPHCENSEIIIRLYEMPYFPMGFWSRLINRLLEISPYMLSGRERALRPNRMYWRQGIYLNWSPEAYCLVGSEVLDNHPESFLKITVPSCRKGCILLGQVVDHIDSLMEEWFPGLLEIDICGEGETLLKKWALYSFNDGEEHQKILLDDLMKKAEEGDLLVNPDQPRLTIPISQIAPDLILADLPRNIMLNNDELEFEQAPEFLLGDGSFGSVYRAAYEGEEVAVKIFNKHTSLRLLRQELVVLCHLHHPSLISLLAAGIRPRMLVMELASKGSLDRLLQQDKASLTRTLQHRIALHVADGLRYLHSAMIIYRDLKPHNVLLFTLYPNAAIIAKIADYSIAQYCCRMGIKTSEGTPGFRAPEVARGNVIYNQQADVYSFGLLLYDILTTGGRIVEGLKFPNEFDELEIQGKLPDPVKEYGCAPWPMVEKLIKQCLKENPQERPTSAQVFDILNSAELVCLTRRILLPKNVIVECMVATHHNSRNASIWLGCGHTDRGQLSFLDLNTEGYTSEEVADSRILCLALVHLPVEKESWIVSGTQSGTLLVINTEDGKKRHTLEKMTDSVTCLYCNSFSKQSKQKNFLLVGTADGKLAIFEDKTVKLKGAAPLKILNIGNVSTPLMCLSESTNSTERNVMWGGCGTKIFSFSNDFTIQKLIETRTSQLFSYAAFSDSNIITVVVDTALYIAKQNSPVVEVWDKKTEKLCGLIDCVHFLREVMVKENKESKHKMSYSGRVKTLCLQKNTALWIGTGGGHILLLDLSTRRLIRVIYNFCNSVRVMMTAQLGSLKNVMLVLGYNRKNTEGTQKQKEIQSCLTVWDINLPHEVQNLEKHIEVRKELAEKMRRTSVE
T2 sequence (Q5S007 whole entry): as the sequence (Q5S007 whole entry G2019S) above, with S2019G counted along it

SMILES | Dmax (G2019S LRRK2) [%] | DC50 (G2019S LRRK2; HEK293 cells) [nM] | Dmax (wildtype LRRK2) [%] | DC50 (wildtype LRRK2) [nM] | **G2019S Dmax (%) (G2019S LRRK2; HEK293 cells)
CC1=C(C(=O)Nc2ccc3[nH]nc(-c4ccnc(N5CCN(CCN6CCC(CN7CCN(c8ccc9c(c8)C(=O)N(C8CCC(=O)NC8=O)C9=O)CC7)CC6)CC5)c4)c3c2)C(C)(C)n2nnnc2N1C (centres unmarked) [compound 33, N-{3-[2-(4-{2-[4-({4-[2-(2,6-dioxopiperidin-3-yl)-1,3-dioxo-2,3-dihydro-1H-isoindol-5-yl]piperazin-1-yl}methyl)piperidin-1-yl]ethyl}piperazin-1-yl)pyridin-4-yl]-1H-indazol-5-yl}-4,5,7,7-tetramethyl-4H,7H-[1,2,3,4]tetrazolo[1,5-a]pyrimidine-6-carboxamide] | < 50 | ≥ 100 | < 50 | ≥ 100 | –
CC1=C(C(=O)Nc2ccc3[nH]nc(-c4ccnc(N5C[C@@H](C)N(CCOCCOCCN6CCN(c7ccc8c(c7)C(=O)N(C7CCC(=O)NC7=O)C8=O)CC6)[C@@H](C)C5)c4)c3c2)Cn2nnnc2N1C (stereo partly drawn) [compound 4, N-(3-(2-((3R,5S)-4-(2-(2-(2-(4-(2-(2,6-dioxopiperidin-3-yl)-1,3-dioxoisoindolin-5-yl)piperazin-1-yl)ethoxy)ethoxy)ethyl)-3,5-dimethylpiperazin-1-yl)pyridin-4-yl)-1H-indazol-5-yl)-4,5-dimethyl-4,7-dihydrotetrazolo[1,5-a]pyrimidine-6-carboxamide] | – | ≥ 100 | – | ≥ 100 | –
CC1=C(C(=O)Nc2ccc3[nH]nc(-c4ccnc(N5CCN(CCN6CCN(CC7CCN(c8ccc9c(c8)C(=O)N(C8CCC(=O)NC8=O)C9=O)CC7)CC6)[C@@H](C)C5)c4)c3c2)[C@H](C)n2nnnc2N1C (stereo partly drawn) [compound 28, (7S)-N-(3-{2-[(3S)-4-{2-[4-({1-[2-(2,6-dioxopiperidin-3-yl)-1,3-dioxo-2,3-dihydro-1H-isoindol-5-yl]piperidin-4-yl}methyl)piperazin-1-yl]ethyl}-3-methylpiperazin-1-yl]pyridin-4-yl}-1H-indazol-5-yl)-4,5,7-trimethyl-4H,7H-[1,2,3,4]tetrazolo[1,5-a]pyrimidine-6-carboxamide] | 50 to 70 | ≥ 100 | – | ≥ 100 | –
CC1=C(C(=O)Nc2ccc3[nH]nc(-c4ccnc(N5CCN(CCN6CCN(CC7CCN(c8ccc9c(c8)C(=O)N(C8CCC(=O)NC8=O)C9=O)CC7)CC6)CC5)c4)c3c2)[C@@H](C)n2nnnc2N1C (stereo partly drawn) [compound 25, (7R)-N-{3-[2-(4-{2-[4-({1-[2-(2,6-dioxopiperidin-3-yl)-1,3-dioxo-2,3-dihydro-1H-isoindol-5-yl]piperidin-4-yl}methyl)piperazin-1-yl]ethyl}piperazin-1-yl)pyridin-4-yl]-1H-indazol-5-yl}-4,5,7-trimethyl-4H,7H-[1,2,3,4]tetrazolo[1,5-a]pyrimidine-6-carboxamide] | – | 10 to 50 | ≥ 70 | 50 to 100 | A (A ≥ 70)
CC1=C(C(=O)Nc2ccc3[nH]nc(-c4ccnc(N5CCN(CCN6CCN(CC7CCN(c8ccc9c(c8)C(=O)N(C8CCC(=O)NC8=O)C9=O)CC7)CC6)CC5)c4)c3c2)[C@@H](C)n2nnnc2N1C (stereo partly drawn) [compound 21, (7R)-N-(3-(2-(4-(2-(4-((1-(2-(2,6-dioxopiperidin-3-yl)-1,3-dioxoisoindolin-5-yl)piperidin-4-yl)methyl)piperazin-1-yl)ethyl)piperazin-1-yl)pyridin-4-yl)-1H-indazol-5-y1)-4,5,7-trimethyl-4,7-dihydrotetrazolo[1,5-a]pyrimidine-6-carboxamide] | 50 to 70 | ≥ 100 | – | ≥ 100 | –
CC1=C(C(=O)Nc2ccc3[nH]nc(-c4ccnc(N5C[C@@H](C)N(CCN6CCN(c7ccc8c(c7)C(=O)N(C7CCC(=O)NC7=O)C8=O)CC6)[C@@H](C)C5)c4)c3c2)Cn2nnnc2N1C (stereo partly drawn) [compound 5, N-(3-(2-((3R,5S)-4-(2-(4-(2-(2,6-dioxopiperidin-3-yl)-1,3-dioxoisoindolin-5-yl)piperazin-1-yl)ethyl)-3,5-dimethylpiperazin-1-yl)pyridin-4-yl)-1H-indazol-5-yl)-4,5-dimethyl-4,7-dihydrotetrazolo[1,5-a]pyrimidine-6-carboxamide] | < 50 | ≥ 100 | – | ≥ 100 | –

More lines, now with the values ahead:

Dmax (G2019S LRRK2) [%] | DC50 (G2019S LRRK2; HEK293 cells) [nM] | Dmax (wildtype LRRK2) [%] | DC50 (wildtype LRRK2) [nM] | **G2019S Dmax (%) (G2019S LRRK2; HEK293 cells) | SMILES
50 to 70 | < 10 | 50 to 70 | 10 to 50 | – | CC1=C(C(=O)Nc2ccc3[nH]nc(-c4ccnc(N5CCN(CC6CCN(CC7CCN(c8ccc9c(c8)C(=O)N(C8CCC(=O)NC8=O)C9=O)CC7)CC6)[C@@H](C)C5)c4)c3c2)Cn2nnnc2N1C (stereo partly drawn) [compound 10, N-(3-(2-((S)-4-((1-((1-(2-(2,6-dioxopiperidin-3-yl)-1,3-dioxoisoindolin-5-yl)piperidin-4-yl)methyl)piperidin-4-yl)methyl)-3-methylpiperazin-1-yl)pyridin-4-yl)-1H-indazol-5-yl)-4,5-dimethyl-4,7-dihydrotetrazolo[1,5-a]pyrimidine-6-carboxamide]
< 50 | 10 to 50 | < 50 | ≥ 100 | – | CC1=C(C(=O)Nc2ccc3[nH]nc(-c4ccnc(N5C[C@@H](C)N(CC6CCN(CC7CCN(c8ccc9c(c8)C(=O)N(C8CCC(=O)NC8=O)C9=O)CC7)CC6)[C@@H](C)C5)c4)c3c2)C(C)(C)n2nnnc2N1C (stereo partly drawn) [compound 6, N-(3-(2-((3S,5R)-4-((1-((1-(2-(2,6-dioxopiperidin-3-yl)-1,3-dioxoisoindolin-5-yl)piperidin-4-yl)methyl)piperidin-4-yl)methyl)-3,5-dimethylpiperazin-1-yl)pyridin-4-yl)-1H-indazol-5-yl)-4,5,7,7-tetramethyl-4,7-dihydrotetrazolo[1,5-a]pyrimidine-6-carboxamide]
50 to 70 | 10 to 50 | < 50 | ≥ 100 | – | CC1=C(C(=O)Nc2ccc3[nH]nc(-c4ccnc(N5CCN(CC6CCN(CC7CCN(c8ccc9c(c8)C(=O)N(C8CCC(=O)NC8=O)C9=O)CC7)CC6)CC5)c4)c3c2)Cn2nnnc2N1C (centres unmarked) [compound 13, N-(3-(2-(4-((1-((1-(2-(2,6-dioxopiperidin-3-yl)-1,3-dioxoisoindolin-5-yl)piperidin-4-yl)methyl)piperidin-4-yl)methyl)piperazin-1-yl)pyridin-4-yl)-1H-indazol-5-yl)-4,5-dimethyl-4,7-dihydrotetrazolo[1,5-a]pyrimidine-6-carboxamide]
50 to 70 | < 10 | 50 to 70 | 10 to 50 | – | CC1=C(C(=O)Nc2ccc3[nH]nc(-c4ccnc(N5CCN(CC6CCN(CC7CCN(c8ccc9c(c8)C(=O)N(C8CCC(=O)NC8=O)C9=O)CC7)CC6)[C@@H](C)C5)c4)c3c2)[C@@H](C)n2nnnc2N1C (single isomer, unassigned) [compound 8]
